pEC50: −log10 of the molar value.

For series [1], the system named is HBV-infected NTCP-HepG2 cells, secreted HBsAg. As to the kind of experiment: microbe, parasite or virus in culture. It counts as cell-based, hepatitis B virus (genotype D, AD38-derived). The note with it: Hepatitis B virus, 120 h, secreted HBsAg in supernatant after 5 days; geometric mean of minimum four determinations; read-out: NTCP HBsAg EC50. Here is the method: NTCP-HepG2 Antiviral Assay for Secreted HBsAg
HepG2 cells stably expressing sodium-taurocholate cotransporting polypeptide (NTCP-HepG2) were grown in Dulbecco's Modified Eagle Medium (DMEM) without sodium pyruvate (Thermo Fisher Scientific, Waltham, Mass.) supplemented with 10% fetal bovine serum, 2 mM L-glutamine, 1% penicillin/streptomycin, and 0.25 mg/mL G-418. NTCP-HepG2 cells were infected with 4000 genome equivalent per cell of genotype D (AD38-derived) HBV in DMEM without sodium pyruvate (Thermo Fisher Scientific, Waltham, Mass.) supplemented with 2% fetal bovine serum, 2 mM L-glutamine, 1% penicillin/streptomycin, 2.5% DMSO, and 4% PEG 8000 (Promega, Madison, Wis.). After 24-hour incubation, cells were washed three times with OptiMEM (Thermo Fisher Scientific, Waltham, Mass.) and fed with fresh DMEM without sodium pyruvate (Thermo Fisher Scientific, Waltham, Mass.) supplemented with 2% fetal bovine serum, 2 mM L-glutamine, 1% penicillin/streptomycin, and 2.5% DMSO. At 4 days after infection, infected NTCP-HepG2 cells were seeded on 384-well plates pre-coated with collagen at a density of 20000 cells per well containing serially diluted compounds of the present disclosure or DMSO (0.5%) in a final volume of 80 μl of DMEM without sodium pyruvate (Thermo Fisher Scientific, Waltham, Mass.) supplemented with 2% fetal bovine serum, 2 mM L-glutamine, 1% penicillin/streptomycin, and 1% DMSO. After an incubation time of 5 days, cell culture supernatant was collected and measured for HBsAg.
Secreted HBsAg in the supernatant were measured using a multiplex chemiluminescent MSD assay (Meso Scale Discovery, Rockville, Md.) using capture and detection antibody pairs specific for HBsAg. The EC50 values were calculated from the fit of the dose-response curves to a four-parameter equation. All EC50 values represent geometric mean values of a minimum of four determinations.

Series [2] can be described thus: MT-4 cytotoxicity assay. It is filed as cell-based, human. The conditions noted are these: human, five days, Cell Titer Glo luminescence; read-out: MT-4 CC50. How it is done: Biological Example 2: MT-4 Cytotoxicity Assay
The MT-4 cell line (HTLV-1 transformed, human T lymphoblastoid cells) was obtained from the NIH AIDS Reagent program (Bethesda, Md.). MT-4 cells were maintained in RPMI-1640 media (Thermo Fisher Scientific, Waltham, Mass.) supplemented with 10% fetal bovine serum, 100 Units/mL penicillin, and 100 μg/mL streptomycin. For the MT-4 cytotoxicity assay, 0.4 μL of serially diluted solutions of certain compounds disclosed herein were added to 40 μL of cell maintenance media in 384-well black, solid bottom plate using a Biomek FX workstation (Beckman Coulter, Brea, Calif.). Two thousand cells in 35 μL were added to each well using a Biotek uFlow Workstation (Biotek, Winooski, Vt.). Each assay plate contained 10 μM puromycin (final concentration) and 0.5% DMSO in RPMI-1640 media as positive and negative controls, respectively. Assay plates were incubated for five days at 37° C. in an incubator set at 5% CO2 and 90% humidity. After five days, 22 μL of Cell Titer Glo reagent (Promega, Madison, Wis.) was added to the assay plates with a Biotek uFlow Workstation. Plates were subsequently placed on an Envision Plate Reader (Perkin Elmer, Waltham, Mass.) for five minutes before the luminescence signal was read. CC50 values were defined as the compound concentration that caused a 50% decrease in luminescence signal, and were calculated by non-linear regression using Pipeline Pilot software by applying a four parameter fit equation (Accelrys, San Diego, Calif.) and are reported in the following Table 1.
(In ATP-based viability assays light output follows the ATP content of the culture.)

In general, pEC50 refers to the EC50 on a negative log10 scale, so that one unit is a factor of ten. As a reminder, the CC50 is the concentration that lowers cell viability or growth by half. Take `COCCCOc1cc2c(cc1OCCCOC)[C@@H]1CCC(C)(C)N1n1cc(C(=O)O)c(=O)cc1-2` [Example 24, (S)-11,12-bis(3-methoxypropoxy)-3,3-dimethyl-8-oxo-2,3,8,13b-tetrahydro-1H-pyrido[2,1-a]pyrrolo[1,2-c]phthalazine-7-carboxylic acid]: the pEC50 in series [1] was less than 6.00. The CC50 at 5 days in series [2] was more than 10 µM.
The like results for `COCCCOc1cc2c(cc1Cl)-c1cc(=O)c(C(=O)O)cn1[C@H]1[C@H]2CCC1(C)C` (single isomer, unassigned) [Example 35] were, in that order, 7.31 and more than 10 µM.
The like results for `COC(C)(C)C#Cc1cc2c(cc1C1CC1)-c1cc(=O)c(C(=O)O)cn1N1[C@@H]2CCC1(C)C` [Example 72, (R)-11-cyclopropyl-12-(3-methoxy-3-methylbut-1-yn-1-yl)-3,3-dimethyl-8-oxo-2,3,8,13b-tetrahydro-1H-pyrido[2,1-a]pyrrolo[1,2-c]phthalazine-7-carboxylic acid] were, in that order, 9.02 and 6.4 µM.
The like results for `COCCCOc1cc2c(cc1Cl)-c1cc(=O)c(C(=O)O)cn1N1[C@@H]2CC1(C)C` [Example 46, (R)-10-chloro-11-(3-methoxypropoxy)-2,2-dimethyl-7-oxo-1,2,7,12b-tetrahydroazeto[2,1-a]pyrido[1,2-c]phthalazine-6-carboxylic acid and (S)-10-chloro-1-(3-methoxypropoxy)-2,2-dimethyl-7-oxo-1,2,7,12b-tetrahydroazeto[2,1-a]pyrido[1,2-c]phthalazine-6-carboxylic acid] were, in that order, 8.11 and more than 10 µM.
Turning to `CC1(C)CC[C@@H]2c3cc(OCC45CC(C#N)(C4)C5)c(C4CC4)cc3-c3cc(=O)c(C(=O)O)cn3N21` [Example 99, (R)-12-((3-cyanobicyclo[1.1.1]pentan-1-yl)methoxy)-11-cyclopropyl-3,3-dimethyl-8-oxo-2,3,8,13b-tetrahydro-1H-pyrido[2,1-a]pyrrolo[1,2-c]phthalazine-7-carboxylic acid], the pEC50 in series [1] was 9.18. Moreover, the CC50 at 5 days in series [2] came out at 3.6 µM.
The like results for `COc1cc2c(cc1C#Cc1cnc3cccnn13)[C@H]1CCC(C)(C)N1n1cc(C(=O)O)c(=O)cc1-2` [Example 68, (R)-12-(imidazo[1,2-b]pyridazin-3-ylethynyl)-11-methoxy-3,3-dimethyl-8-oxo-2,3,8,13b-tetrahydro-1H-pyrido[2,1-a]pyrrolo[1,2-c]phthalazine-7-carboxylic acid] were, in that order, 8.54 and more than 10 µM.
In the same order, the values of `COCCCOc1cc2c(cc1C1CC1)-c1cc(=O)c(C(=O)O)cn1N1[C@@H]2COCC1(C)C` [Example 101, (S)-12-cyclopropyl-13-(3-methoxypropoxy)-4,4-dimethyl-9-oxo-3,4,9,14b-tetrahydro-1H-[1,4]oxazino[3,4-a]pyrido[1,2-c]phthalazine-8-carboxylic acid] are 9.15 and 8.2 µM.
The like results for `CC1(C)CC[C@@H]2c3cc(OCCn4nc5ccccn5c4=O)c(C4CC4)cc3-c3cc(=O)c(C(=O)O)cn3N21` [Example 96, (R)-11-cyclopropyl-3,3-dimethyl-8-oxo-12-(2-(3-oxo-[1,2,4]triazolo[4,3-a]pyridin-2(3H)-yl)ethoxy)-2,3,8,13b-tetrahydro-1H-pyrido[2,1-a]pyrrolo[1,2-c]phthalazine-7-carboxylic acid] were, in that order, 9.77 and more than 10 µM.
For the compound `COc1cc2c(cc1OCC1CC(F)(F)C1)[C@H]1CCC(C)(C)N1n1cc(C(=O)O)c(=O)cc1-2` [Example 50, (R)-12-((3,3-difluorocyclobutyl)methoxy)-11-methoxy-3,3-dimethyl-8-oxo-2,3,8,13b-tetrahydro-1H-pyrido[2,1-a]pyrrolo[1,2-c]phthalazine-7-carboxylic acid], in series [1], the pEC50 was 9.00. Also, the CC50 at 5 days in series [2] is more than 10 µM.
In the same order, the values of `COCCCOc1cc2c(cc1Cl)-c1cc(=O)c(C(=O)O)cn1N1[C@H](C)CC[C@H]21` (single isomer, unassigned) [Example 7] are 7.49 and more than 10 µM.
`COCCCOc1cc2c(cc1Cl)-c1cc(=O)c(C(=O)O)cn1N1[C@H]2CCC1(C)C` (single isomer, unassigned) [Example 6]: in series [1], the pEC50 was 6.52. In series [2], the CC50 at 5 days is more than 10 µM.
The like results for `COc1cc2c(cc1OCCCOCC(F)(F)F)[C@H]1CCC(C)(C)N1n1cc(C(=O)O)c(=O)cc1-2` [Example 60, (R)-11-methoxy-3,3-dimethyl-8-oxo-12-(3-(2,2,2-trifluoroethoxy)propoxy)-2,3,8,13b-tetrahydro-1H-pyrido[2,1-a]pyrrolo[1,2-c]phthalazine-7-carboxylic acid] were, in that order, 8.92 and more than 10 µM.
Regarding `COc1cc2c(cc1C#CC(C)(C)S(C)(=O)=O)[C@H]1CCC(C)(C)N1n1cc(C(=O)O)c(=O)cc1-2` [Example 83, (R)-11-methoxy-3,3-dimethyl-12-(3-methyl-3-(methylsulfonyl)but-1-yn-1-yl)-8-oxo-2,3,8,13b-tetrahydro-1H-pyrido[2,1-a]pyrrolo[1,2-c]phthalazine-7-carboxylic acid], the pEC50 in series [1] is 8.02. In series [2], the CC50 at 5 days was more than 10 µM.
In the same order, the values of `COCCCOc1cc2c(cc1OC(F)F)-c1cc(=O)c(C(=O)O)cn1N1C2CCC1(C)C` (stereo not shown) [Example 18, 11-(difluoromethoxy)-12-(3-methoxypropoxy)-3,3-dimethyl-8-oxo-2,3,8,13b-tetrahydro-1H-pyrido[2,1-a]pyrrolo[1,2-c]phthalazine-7-carboxylic acid] are 8.40 and more than 10 µM.
Take `CC1(COc2cc3c(cc2Cl)-c2cc(=O)c(C(=O)O)cn2N2[C@@H]3CCC2(C)C)COC1` [Example 49, (R)-11-chloro-3,3-dimethyl-12-((3-methyloxetan-3-yl)methoxy)-8-oxo-2,3,8,13b-tetrahydro-1H-pyrido[2,1-a]pyrrolo[1,2-c]phthalazine-7-carboxylic acid]: the negative logarithm of the EC50 (pEC50) in series [1] was 8.42. Also, the half-maximal cytotoxic concentration (CC50) at 5 days in series [2] was more than 10 µM.
The like results for `COCCCOc1cc2c(cc1OC(F)(F)F)-c1cc(=O)c(C(=O)O)cn1N1[C@@H]2CCC1(C)C` [Example 79, (R)-12-(3-methoxypropoxy)-3,3-dimethyl-8-oxo-11-(trifluoromethoxy)-2,3,8,13b-tetrahydro-1H-pyrido[2,1-a]pyrrolo[1,2-c]phthalazine-7-carboxylic acid] were, in that order, 8.96 and more than 10 µM.
Take `COCCCOc1cc2c(cc1Cl)-c1cc(=O)c(C(=O)O)cn1N1[C@H]2COCC1(C)C` (single isomer, unassigned) [Example 39]: in series [1], the negative-log EC50 (pEC50) was 6.17. The CC50 at 5 days in series [2] was more than 10 µM.
In the same order, the values of `COCCCOc1cc2c(cc1OCCCOC)[C@H]1CCC(C)(C)N1n1cc(C(=O)O)c(=O)cc1-2` [Example 23, (R)-11,12-bis(3-methoxypropoxy)-3,3-dimethyl-8-oxo-2,3,8,13b-tetrahydro-1H-pyrido[2,1-a]pyrrolo[1,2-c]phthalazine-7-carboxylic acid] are 7.28 and more than 10 µM.
Regarding `COCc1cc2c(cc1OCCCOC(=O)NC1(C(F)F)CC1)[C@H]1CCC(C)(C)N1n1cc(C(=O)O)c(=O)cc1-2` [Example 88, (R)-12-(3-(((1-(Difluoromethyl)cyclopropyl)carbamoyl)oxy)propoxy)-11-(methoxymethyl)-3,3-dimethyl-8-oxo-2,3,8,13b-tetrahydro-H-pyrido[2,1-a]pyrrolo[1,2-c]phthalazine-7-carboxylic acid], in series [1], the pEC50 was 8.27. Moreover, the cytotoxic concentration (CC50) at 5 days in series [2] is more than 10 µM.
In the same order, the values of `COCCCOc1cc2c(cc1Cl)-c1cc(=O)c(C(=O)O)cn1N1[C@@H]2CCCC1(C)C` (single isomer, unassigned) [Example 12] are 8.60 and 8.8 µM.

Source of the values: patent US10442804B2, “Compounds for the treatment of hepatitis B virus infection” (Gilead Sciences, Inc., priority 2017, dated 2019).
